The record followed here is patent US12134599B2, “Solid forms” (River 3 Renal Corp., priority 2021, dated 2024).

A short description of series [1]: Dynamic vapor sorption (DVS) analysis. In kind it is physicochemical.
The next series can be described thus: physchem. Particulars: 25 °C, water, thermodynamic from solid.
Where [2] appears, read: between about 0 to about 90% relative humidity (RH) at 25° C.

One may read the solubility as the dissolved amount per volume that the medium holds. High values mean much dissolved substance, low ones little dissolved substance.

Description for physchem: About 5 mg of crystalline Form E was weighed in 2 mL glass vials. 20 μL aliquots of each solvent were added to dissolve the compound at 25° C. Vortex and sonication were applied to assist dissolution. The maximum volume of each solvent added was 1 mL.

Take `O=C(N[C@@H]1CCCC[C@H]1O)c1cnc(OCC(F)(F)F)c(-c2ccc(Cl)c(Cl)c2)c1` [Form D, 5-(3,4-dichlorophenyl)-N-((1R,2R)-2-hydroxycyclohexyl)-6-(2,2,2-trifluoroethoxy)nicotinamide]: in series [1] (setting [2]), the “DVS total mass change” value is recorded as “about 20 wt. %”. `O=C(N[C@@H]1CCCC[C@H]1O)c1cnc(OCC(F)(F)F)c(-c2ccc(Cl)c(Cl)c2)c1` [Form I, 5-(3,4-dichlorophenyl)-N-((1R,2R)-2-hydroxycyclohexyl)-6-(2,2,2-trifluoroethoxy)nicotinamide]: the “DVS total mass change” value in series [1] (setting [2]) is reported as “about 10 wt. %”. For `O=C(N[C@@H]1CCCC[C@H]1O)c1cnc(OCC(F)(F)F)c(-c2ccc(Cl)c(Cl)c2)c1` [Form H, 5-(3,4-dichlorophenyl)-N-((1R,2R)-2-hydroxycyclohexyl)-6-(2,2,2-trifluoroethoxy)nicotinamide], the “DVS total mass change” value in series [1] (between about 0 to about 70% relative humidity (RH) at 25° C.) is “about 2.5 wt. %”; in series [1] (between about 70 to about 90% relative humidity (RH) at 25° C.), “about 25 wt. %”. In the case of `O=C(N[C@@H]1CCCC[C@H]1O)c1cnc(OCC(F)(F)F)c(-c2ccc(Cl)c(Cl)c2)c1` [Form E, 5-(3,4-dichlorophenyl)-N-((1R,2R)-2-hydroxycyclohexyl)-6-(2,2,2-trifluoroethoxy)nicotinamide], the “DVS total mass change” value in series [1] (setting [2]) is reported as “about 0.3 wt. %”. Besides, the solubility in “physchem” was less than 5000 µg/mL. On to `O=C(N[C@@H]1CCCC[C@H]1O)c1cnc(OCC(F)(F)F)c(-c2ccc(Cl)c(Cl)c2)c1` [Form 2, 5-(3,4-dichlorophenyl)-N-((1R,2R)-2-hydroxycyclohexyl)-6-(2,2,2-trifluoroethoxy)nicotinamide], for which the “DVS total mass change” value in series [1] (setting [2]) is reported as “about 2.1 wt. %”. For `O=C(N[C@@H]1CCCC[C@H]1O)c1cnc(OCC(F)(F)F)c(-c2ccc(Cl)c(Cl)c2)c1` [Form A, 5-(3,4-dichlorophenyl)-N-((1R,2R)-2-hydroxycyclohexyl)-6-(2,2,2-trifluoroethoxy)nicotinamide], the “DVS total mass change” value in series [1] (setting [2]) is on record as “about 1.8 wt. %”. Still for that read-out and setting: the entry for `O=C(N[C@@H]1CCCC[C@H]1O)c1cnc(OCC(F)(F)F)c(-c2ccc(Cl)c(Cl)c2)c1` [Form B, 5-(3,4-dichlorophenyl)-N-((1R,2R)-2-hydroxycyclohexyl)-6-(2,2,2-trifluoroethoxy)nicotinamide] is “about 0.3 wt. %”.
